One experiment relates to STAT5. In words: Immunoblotting (Western blot) analysis of STAT5 degradation efficiency of degraders in treated cells. In kind it is cell-based. In short, it runs like this:
(§1)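 Protein levels of STAT5 and STAT6 were assessed in cells cultured at 37 °C in 10% FBS medium after compound exposure, by quantitative fluorescent Western blotting normalised to equal loading and referenced to GAPDH.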
(Immunoblotting shows a protein as a band on a membrane.)

The target in a further experiment is T1, STAT6 (Homo sapiens, UniProt P42226).
T1 construct: endogenous in cells; host or cells: MOLM-16, KU-812, SKNO1, MB231, L1236
T1 sequence (P42226 1-847): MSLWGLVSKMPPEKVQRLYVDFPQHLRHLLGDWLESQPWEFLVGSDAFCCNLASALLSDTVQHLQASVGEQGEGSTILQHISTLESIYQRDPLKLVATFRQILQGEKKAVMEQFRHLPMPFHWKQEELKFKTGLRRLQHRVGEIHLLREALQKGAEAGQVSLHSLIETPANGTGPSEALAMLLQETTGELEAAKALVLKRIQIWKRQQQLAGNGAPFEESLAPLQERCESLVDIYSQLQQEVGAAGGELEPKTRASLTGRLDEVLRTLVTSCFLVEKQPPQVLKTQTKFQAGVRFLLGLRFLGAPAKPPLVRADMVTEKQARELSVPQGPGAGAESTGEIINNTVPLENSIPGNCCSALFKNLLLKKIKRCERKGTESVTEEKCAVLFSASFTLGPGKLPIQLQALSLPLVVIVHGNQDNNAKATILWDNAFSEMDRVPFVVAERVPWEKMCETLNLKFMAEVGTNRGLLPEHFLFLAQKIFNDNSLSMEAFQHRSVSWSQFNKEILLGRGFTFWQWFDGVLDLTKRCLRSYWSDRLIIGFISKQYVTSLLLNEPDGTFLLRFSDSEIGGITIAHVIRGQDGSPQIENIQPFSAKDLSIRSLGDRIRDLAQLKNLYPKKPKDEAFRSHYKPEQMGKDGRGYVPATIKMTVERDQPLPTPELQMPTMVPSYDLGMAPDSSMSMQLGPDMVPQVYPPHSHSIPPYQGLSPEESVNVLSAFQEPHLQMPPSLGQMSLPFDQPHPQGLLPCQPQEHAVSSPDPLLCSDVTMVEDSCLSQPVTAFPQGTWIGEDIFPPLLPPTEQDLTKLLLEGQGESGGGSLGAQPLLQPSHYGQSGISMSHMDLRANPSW
In words: Immunoblotting (Western blot) analysis of STAT6 degradation efficiency of degraders in treated cells. Format: cell-based. In short, it runs like this: as §1

Where [1] appears, read: KU-812 cells, read-out: DC50 S5 KU-812.
The mark [2] stands for this setting: MOLM-16 cells, class symbols, read-out: DC50 S5 MOLM-16.
Where [3] appears, read: MOLM-16 cells, class symbols, read-out: DC50 S6 MOLM-16.
Where [4] appears, read: MOLM-16 cells, numeric bound, read-out: DC50 S5 MOLM-16.
Where [5] appears, read: SKNO1 cells, read-out: DC50 S5 SKNO1.
[6] abbreviates: MOLM-16 cells, numeric bound, read-out: DC50 S6 MOLM-16.

Where two headings read alike, the source gives them in different places. Bounds are passed on as bounds.

Consider `CN(CCCC#Cc1cccc2c1CN(C1CCC(=O)NC1=O)C2=O)C(=O)CCN(C(=O)[C@@H]1CCCN1C(=O)[C@@H](NC(=O)c1cc2cc(C(F)(F)P(=O)(O)OCOC(=O)C(C)(C)C)ccc2s1)C(C)(C)C)c1ccc(-c2nccs2)cc1` (stereo partly drawn) [Compound 679, ((((2-(((2S)-1-((2S)-2-((3-((5-(2-(2,6-dioxopiperidin-3-yl)-1-oxoisoindolin-4-yl)pent-4-yn-1-yl)(methyl)amino)-3-oxopropyl)(4-(thiazol-2-yl)phenyl)carbamoyl)pyrrolidin-1-yl)-3,3-dimethyl-1-oxobutan-2-yl)carbamoyl)benzo[b]thiophen-5-yl)difluoromethyl)(hydroxy)phosphoryl)oxy)methyl pivalate], for which the values for the DC50 in the experiment with STAT5 (setting [1]), with STAT5 (setting [2]) and on STAT6 (setting [3]) were 100 to 1000 nM, < 100 nM and > 10000 nM, respectively.
Turning to `CC(C)(C)[C@H](NC(=O)c1cc2cc(C(F)(F)P(=O)(O)O)ccc2s1)C(=O)N1CCC[C@H]1C(=O)N(CCCCCCCC#Cc1cccc2c1CN(C1CCC(=O)NC1=O)C2=O)c1ccc(-c2nccs2)cc1` (stereo partly drawn) [Compound 670, ((2-(((2S)-1-((2S)-2-((9-(2-(2,6-dioxopiperidin-3-yl)-1-oxoisoindolin-4-yl)non-8-yn-1-yl)(4-(thiazol-2-yl)phenyl)carbamoyl)pyrrolidin-1-yl)-3,3-dimethyl-1-oxobutan-2-yl)carbamoyl)benzo[b]thiophen-5-yl)difluoromethyl)phosphonic acid], the figures for the DC50 with STAT5 (setting [4]), in the experiment with STAT5 (setting [5]) and on STAT6 (setting [6]) were > 300 nM, > 10000 nM and > 300 nM, respectively.
Take `Cc1ncsc1-c1ccc([C@H](CC(=O)NCCCCCCC(=O)N[C@@H]2C[C@@H](C(=O)Nc3ncc(-c4ccccc4)s3)N(C(=O)[C@@H](NC(=O)c3cc4cc(C(F)(F)P(=O)(O)O)ccc4s3)C(C)(C)C)C2)NC(=O)[C@@H]2C[C@@H](O)CN2C(=O)[C@@H](NC(=O)C2(F)CC2)C(C)(C)C)cc1` [Compound 576, (difluoro(2-(((S)-1-((2S,4R)-4-(7-((S)-3-((2S,4R)-1-((S)-2-(1-fluorocyclopropane-1-carboxamido)-3,3-dimethylbutanoyl)-4-hydroxypyrrolidine-2-carboxamido)-3-(4-(4-methylthiazol-5-yl)phenyl)propanamido)heptanamido)-2-((5-phenylthiazol-2-yl)carbamoyl)pyrrolidin-1-yl)-3,3-dimethyl-1-oxobutan-2-yl)carbamoyl)benzo[b]thiophen-5-yl)methyl)phosphonic acid]: the DC50 in the experiment with STAT5 (setting [4]) and on STAT6 (setting [6]) was > 300 nM throughout.
On to `O=C(CCN(C(=O)CN1CCCC[C@H](NC(=O)c2cc3cc(C(F)(F)P(=O)(O)O)ccc3s2)C1=O)c1ccc(Br)cc1)NCCCC#Cc1cccc2c1CN(C1CCC(=O)NC1=O)C2=O` (stereo partly drawn) [Compound 664, ((2-(((3S)-1-(2-((4-bromophenyl)(3-((5-(2-(2,6-dioxopiperidin-3-yl)-1-oxoisoindolin-4-yl)pent-4-yn-1-yl)amino)-3-oxopropyl)amino)-2-oxoethyl)-2-oxoazepan-3-yl)carbamoyl)benzo[b]thiophen-5-yl)difluoromethyl)phosphonic acid], for which the DC50 in the experiment on STAT5 (setting [4]) and at STAT6 (setting [6]) was > 300 nM each time.
Regarding `CC(C)(C)[C@H](NC(=O)c1cc2cc(C(F)(F)P(=O)(O)O)ccc2s1)C(=O)N1CCC[C@H]1C(=O)N(CCC(=O)NCCCCCCC#Cc1cccc2c1CN(C1CCC(=O)NC1=O)C2=O)c1ccc(Br)cc1` (stereo partly drawn) [Compound 404, ((2-(((2S)-1-((2S)-2-((4-bromophenyl)(3-((8-(2-(2,6-dioxopiperidin-3-yl)-1-oxoisoindolin-4-yl)oct-7-yn-1-yl)amino)-3-oxopropyl)carbamoyl)pyrrolidin-1-yl)-3,3-dimethyl-1-oxobutan-2-yl)carbamoyl)benzo[b]thiophen-5-yl)difluoromethyl)phosphonic acid], the DC50 in the experiment on STAT5 (setting [1]) is 100 to 1000 nM; with STAT5 (setting [2]) it was 100 to 1000 nM; in the experiment with STAT5 (setting [5]), 1000 to 10000 nM; at STAT6 (MB231 cells, read-out: DC50 S6 MB231), > 10000 nM; on STAT6 (setting [3]), > 10000 nM.
As for `CCN1CC[C@H]2CC[C@@H](C(=O)N(CCC(=O)NCC#Cc3cccc4c3CN(C3CCC(=O)NC3=O)C4=O)c3ccc(Br)cc3)N2C(=O)[C@@H](NC(=O)c2cc3cc(C(F)(F)P(=O)(O)O)ccc3s2)C1` (stereo partly drawn) [Compound 625, ((2-(((5S,8S,10aR)-8-((4-bromophenyl)(3-((3-(2-(2,6-dioxopiperidin-3-yl)-1-oxoisoindolin-4-yl)prop-2-yn-1-yl)amino)-3-oxopropyl)carbamoyl)-3-ethyl-6-oxodecahydropyrrolo[1,2-a][1,5]diazocin-5-yl)carbamoyl)benzo[b]thiophen-5-yl)difluoromethyl)phosphonic acid], the DC50 in the experiment on STAT5 (setting [4]) was > 300 nM.
For the molecule `CC(C)(C)[C@H](NC(=O)c1cc2cc(C(F)(F)P(=O)(O)O)ccc2s1)C(=O)N1CCC[C@H]1C(=O)N(CCC(=O)NCCCC#Cc1cccc2c1CN(C1CCC(=O)NC1=O)C2=O)c1cccc(C#N)c1` (stereo partly drawn) [Compound 643, ((2-(((2S)-1-((2S)-2-((3-cyanophenyl)(3-((5-(2-(2,6-dioxopiperidin-3-yl)-1-oxoisoindolin-4-yl)pent-4-yn-1-yl)amino)-3-oxopropyl)carbamoyl)pyrrolidin-1-yl)-3,3-dimethyl-1-oxobutan-2-yl)carbamoyl)benzo[b]thiophen-5-yl)difluoromethyl)phosphonic acid], the values for the half-maximal degradation concentration (DC50) in the experiment with STAT5 (setting [4]) and with STAT5 (setting [5]) were > 300 nM and > 10000 nM, respectively.
With `CC(C)(C)[C@H](NC(=O)c1cc2cc(C(F)(F)P(=O)(O)O)ccc2s1)C(=O)N1CCC[C@H]1C(=O)N(CCC(=O)NCCCCC#Cc1cccc2c1CN(C1CCC(=O)NC1=O)C2=O)c1ccc(Cl)cc1` (stereo partly drawn) [Compound 638, ((2-(((2S)-1-((2S)-2-((4-chlorophenyl)(3-((6-(2-(2,6-dioxopiperidin-3-yl)-1-oxoisoindolin-4-yl)hex-5-yn-1-yl)amino)-3-oxopropyl)carbamoyl)pyrrolidin-1-yl)-3,3-dimethyl-1-oxobutan-2-yl)carbamoyl)benzo[b]thiophen-5-yl)difluoromethyl)phosphonic acid], the DC50 in the experiment on STAT5 (setting [2]) lay in the range of 100 to 1000 nM.
Turning to `CC(C)(C)[C@H](NC(=O)c1cc2cc(C(F)(F)P(=O)(O)O)ccc2s1)C(=O)N1CCC[C@H]1C(=O)N(CCC(=O)N1CCC(Nc2cccc3c2CN(C2CCC(=O)NC2=O)C3=O)CC1)c1ccc(Br)cc1` (stereo partly drawn) [Compound 615, ((2-(((2S)-1-((2S)-2-((4-bromophenyl)(3-(4-((2-(2,6-dioxopiperidin-3-yl)-1-oxoisoindolin-4-yl)amino)piperidin-1-yl)-3-oxopropyl)carbamoyl)pyrrolidin-1-yl)-3,3-dimethyl-1-oxobutan-2-yl)carbamoyl)benzo[b]thiophen-5-yl)difluoromethyl)phosphonic acid], the values for the DC50 in the experiment with STAT5 (setting [1]) and in the experiment on STAT5 (setting [4]) were > 10000 nM and > 300 nM, respectively.
Regarding `CC(C)(C)[C@H](NC(=O)c1cc2cc(C(F)(F)P(=O)(O)O)ccc2s1)C(=O)N1CCC[C@H]1C(=O)N(CCC(=O)NCCCC#Cc1cccc2c1CN(C1CCC(=O)NC1=O)C2=O)c1cccc(C(F)(F)F)c1` (stereo partly drawn) [Compound 645, ((2-(((2S)-1-((2S)-2-((3-((5-(2-(2,6-dioxopiperidin-3-yl)-1-oxoisoindolin-4-yl)pent-4-yn-1-yl)amino)-3-oxopropyl)(3-(trifluoromethyl)phenyl)carbamoyl)pyrrolidin-1-yl)-3,3-dimethyl-1-oxobutan-2-yl)carbamoyl)benzo[b]thiophen-5-yl)difluoromethyl)phosphonic acid], the DC50 in the experiment with STAT5 (setting [4]) is > 300 nM; in the experiment with STAT5 (setting [5]), > 10000 nM.
Consider `CCN1CC[C@H]2CC[C@@H](C(=O)N(CCC(=O)NCCCCC#Cc3cccc4c3CN(C3CCC(=O)NC3=O)C4=O)c3ccc(Br)cc3)N2C(=O)[C@@H](NC(=O)c2cc3cc(C(F)(F)P(=O)(O)O)ccc3s2)C1` (stereo partly drawn) [Compound 628, ((2-(((5S,8S,10aR)-8-((4-bromophenyl)(3-((6-(2-(2,6-dioxopiperidin-3-yl)-1-oxoisoindolin-4-yl)hex-5-yn-1-yl)amino)-3-oxopropyl)carbamoyl)-3-ethyl-6-oxodecahydropyrrolo[1,2-a][1,5]diazocin-5-yl)carbamoyl)benzo[b]thiophen-5-yl)difluoromethyl)phosphonic acid], for which, in the experiment on STAT5 (setting [4]), the DC50 is > 300 nM.

What is called DC50 is the concentration giving 50% degradation.

(Values after patent US20230295197A1, “STAT5 and STAT6 Degraders and Uses Thereof” (REGENTS OF THE UNIVERSITY OF MICHICAN, priority 2022, published 2023).)
